± gives the expanded uncertainty stated by the source.
Assay: xn = mol fraction of the nth substance listed
Conditions: 101 kPa, Liquid; for viscosity: Falling or rolling sphere viscometry; for mass density: Vibrating tube method

CCCC(=O)OCC [ethyl butanoate] + CCCCO
Conditions | mass density, 288.15 K [kg/m3] | mass density, 293.15 K [kg/m3] | mass density, 298.15 K [kg/m3] | mass density, 303.15 K [kg/m3] | viscosity, 288.15 K [mPa·s] | viscosity, 293.15 K [mPa·s] | viscosity, 298.15 K [mPa·s] | viscosity, 303.15 K [mPa·s]
x1 = 0.1 | 822.84 ± 0.21 | 818.8 ± 0.21 | 814.75 ± 0.21 | 810.68 ± 0.21 | 2.336 ± 0.05 | 2.037 ± 0.044 | 1.841 ± 0.039 | 1.648 ± 0.035
x1 = 0.2001 | 831.39 ± 0.21 | 827.16 ± 0.21 | 822.9 ± 0.21 | 818.63 ± 0.21 | 1.762 ± 0.038 | 1.581 ± 0.034 | 1.427 ± 0.031 | 1.292 ± 0.028
x1 = 0.2999 | 839.43 ± 0.21 | 835.01 ± 0.21 | 830.57 ± 0.21 | 826.12 ± 0.22 | 1.408 ± 0.03 | 1.279 ± 0.027 | 1.166 ± 0.025 | 1.068 ± 0.023
x1 = 0.3998 | 846.96 ± 0.22 | 842.37 ± 0.22 | 837.77 ± 0.22 | 833.15 ± 0.22 | 1.186 ± 0.026 | 1.085 ± 0.023 | 0.9988 ± 0.022 | 0.9215 ± 0.02
x1 = 0.5 | 854.06 ± 0.22 | 849.32 ± 0.22 | 844.57 ± 0.22 | 839.8 ± 0.23 | 1.022 ± 0.022 | 0.9419 ± 0.02 | 0.8734 ± 0.019 | 0.8111 ± 0.017
x1 = 0.5999 | 860.72 ± 0.23 | 855.86 ± 0.23 | 850.97 ± 0.23 | 846.07 ± 0.23 | 0.9212 ± 0.02 | 0.8544 ± 0.018 | 0.7967 ± 0.017 | 0.7434 ± 0.016
x1 = 0.6998 | 867 ± 0.24 | 862.01 ± 0.24 | 857 ± 0.24 | 851.98 ± 0.24 | 0.8393 ± 0.018 | 0.7817 ± 0.017 | 0.7315 ± 0.016 | 0.6856 ± 0.015
x1 = 0.7999 | 872.95 ± 0.25 | 867.86 ± 0.25 | 862.74 ± 0.25 | 857.62 ± 0.25 | 0.785 ± 0.017 | 0.7316 ± 0.016 | 0.6849 ± 0.015 | 0.6447 ± 0.014
x1 = 0.9001 | 878.66 ± 0.26 | 873.47 ± 0.26 | 868.27 ± 0.26 | 863.05 ± 0.26 | 0.7409 ± 0.016 | 0.6958 ± 0.015 | 0.656 ± 0.014 | 0.6181 ± 0.013
x1 = 1 | 884.16 ± 0.27 | 878.9 ± 0.27 | 873.62 ± 0.27 | 868.33 ± 0.27 | 0.7224 ± 0.016 | 0.6808 ± 0.015 | 0.643 ± 0.014 | 0.6072 ± 0.013

Reference: the NIST ThermoML archive (doi:10.1021/je5005752)
